Data set [1] is described as follows: Compound was tested for volume distribution. Type of data set: ADME. Conditions: rat; read-out: Volume distribution.
The test system of data set [2] is Rattus norvegicus. The data set is described as follows: In vivo insulin (10 units) response in rats at 10 mg/kg dose. In kind it is functional.
Another data set concerns the target TGF-beta receptor type-2 (Homo sapiens, UniProt P37173). Nature of the data set: Inhibition of human TGF-beta type II receptor.
The target in data set [3] is Protein kinase C beta type (Homo sapiens, UniProt P05771). Nature of the data set: Inhibition of human Protein kinase C beta 2.
A short description of data set [4]: Compound was tested for in vivo clearance. In kind it is ADME, organism-based. Conditions: rat.
In data set [5] the target is cAMP-dependent protein kinase catalytic subunit beta (Homo sapiens, UniProt P22694). The data set is described as follows: Inhibition of human Protein kinase A beta.
For data set [6], the species on record is Rattus norvegicus. Nature of the data set: Threshold minimal effective dose in rats. Type of data set: functional.
Data set [7] is described as follows: Oral bioavailability. In kind it is ADME, organism-based. Particulars: rat, in vivo.
For data set [8], the target named is Cyclin-dependent kinase 4 (Homo sapiens, UniProt P11802). Nature of the data set: Inhibition of human Cyclin-dependent kinase 4.
Data set [9] concerns the target T1, Glycogen synthase kinase-3 beta (Homo sapiens, UniProt P49841).
Description: Inhibition of human Glycogen synthase kinase-3 beta
Data set [10] deals with RAC-alpha serine/threonine-protein kinase (Homo sapiens, UniProt P31749). Nature of the data set: Inhibition of human Akt1.
In data set [11] the test system is Rattus norvegicus. Nature of the data set: In vivo glucose reduction in rats at 10 mg/kg dose. In kind it is functional. Details: scale not given: the % may be the effect or the level left.
Data set [12] in a line: Half life in oral, hours. In kind it is ADME, organism-based. Particulars: rat, in vivo.
Data set [13] in a line: Half life in in vivo, hours. Type of data set: ADME, organism-based. Particulars: rat.
A short description of data set [14]: Compound was tested for oral AUC at 0 to 24 hours. Details: time < 24 hr, route oral. Conditions: rat. In kind it is ADME.
Data set [15] concerns the target T1, Glycogen synthase kinase-3 beta. Nature of the data set: Inhibition of Glycogen synthase kinase-3 beta dependent Tau protein serine-396 phosphorylation in human SY5Y cells. Type of data set: functional, cell-based.
For data set [16], the target named is Vascular endothelial growth factor receptor 2 (Homo sapiens, UniProt P35968). The data set is described as follows: Inhibition of human Vascular endothelial growth factor receptor 2.
The target in another data set is MAP kinase p38 (Homo sapiens, UniProt O15264+Q15759+Q16539+P53778). The data set is described as follows: Inhibition of human Mitogen-activated protein kinase p38.
The target of data set [17] is Cyclin-dependent kinase 2 (Homo sapiens, UniProt P24941). The data set is described as follows: Inhibition of human Cyclin-dependent kinase 2.
Data set [18] has as its target Mitogen-activated protein kinase kinase kinase 20 (Homo sapiens, UniProt Q9NYL2).

Each structure is given as a SMILES string. Some results are limits rather than exact numbers.

RAC-alpha serine/threonine-protein kinase, sequence (P31749 whole entry): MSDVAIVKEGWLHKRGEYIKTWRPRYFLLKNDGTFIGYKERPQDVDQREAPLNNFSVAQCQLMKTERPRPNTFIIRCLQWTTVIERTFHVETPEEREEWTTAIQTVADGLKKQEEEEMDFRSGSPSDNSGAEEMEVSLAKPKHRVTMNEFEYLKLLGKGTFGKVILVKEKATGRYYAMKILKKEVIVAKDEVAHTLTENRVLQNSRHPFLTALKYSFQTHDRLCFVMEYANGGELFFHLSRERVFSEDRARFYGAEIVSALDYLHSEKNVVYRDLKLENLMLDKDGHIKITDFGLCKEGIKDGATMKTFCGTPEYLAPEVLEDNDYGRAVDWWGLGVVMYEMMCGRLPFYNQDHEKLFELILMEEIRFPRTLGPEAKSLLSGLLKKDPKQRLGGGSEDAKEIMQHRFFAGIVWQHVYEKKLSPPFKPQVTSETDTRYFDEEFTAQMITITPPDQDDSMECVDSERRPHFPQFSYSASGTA
Protein kinase C beta type, sequence (P05771 whole entry): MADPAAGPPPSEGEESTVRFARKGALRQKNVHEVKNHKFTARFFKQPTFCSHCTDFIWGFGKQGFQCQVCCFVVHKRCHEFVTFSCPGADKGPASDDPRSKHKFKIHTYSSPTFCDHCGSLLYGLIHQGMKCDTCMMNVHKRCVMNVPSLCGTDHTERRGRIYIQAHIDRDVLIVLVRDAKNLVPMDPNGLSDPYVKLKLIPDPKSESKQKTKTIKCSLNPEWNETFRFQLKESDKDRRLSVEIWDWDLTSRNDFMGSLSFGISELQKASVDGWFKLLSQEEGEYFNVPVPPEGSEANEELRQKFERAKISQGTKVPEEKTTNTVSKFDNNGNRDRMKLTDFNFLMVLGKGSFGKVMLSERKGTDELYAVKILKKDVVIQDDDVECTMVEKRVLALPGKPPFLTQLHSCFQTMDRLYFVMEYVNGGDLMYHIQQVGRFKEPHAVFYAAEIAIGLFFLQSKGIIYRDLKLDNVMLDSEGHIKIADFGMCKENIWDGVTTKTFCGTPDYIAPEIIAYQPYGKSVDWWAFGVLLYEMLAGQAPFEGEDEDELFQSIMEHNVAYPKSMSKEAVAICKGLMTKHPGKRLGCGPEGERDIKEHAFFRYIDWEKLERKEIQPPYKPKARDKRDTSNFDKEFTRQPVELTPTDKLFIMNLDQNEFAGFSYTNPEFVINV
Vascular endothelial growth factor receptor 2, sequence (P35968 whole entry): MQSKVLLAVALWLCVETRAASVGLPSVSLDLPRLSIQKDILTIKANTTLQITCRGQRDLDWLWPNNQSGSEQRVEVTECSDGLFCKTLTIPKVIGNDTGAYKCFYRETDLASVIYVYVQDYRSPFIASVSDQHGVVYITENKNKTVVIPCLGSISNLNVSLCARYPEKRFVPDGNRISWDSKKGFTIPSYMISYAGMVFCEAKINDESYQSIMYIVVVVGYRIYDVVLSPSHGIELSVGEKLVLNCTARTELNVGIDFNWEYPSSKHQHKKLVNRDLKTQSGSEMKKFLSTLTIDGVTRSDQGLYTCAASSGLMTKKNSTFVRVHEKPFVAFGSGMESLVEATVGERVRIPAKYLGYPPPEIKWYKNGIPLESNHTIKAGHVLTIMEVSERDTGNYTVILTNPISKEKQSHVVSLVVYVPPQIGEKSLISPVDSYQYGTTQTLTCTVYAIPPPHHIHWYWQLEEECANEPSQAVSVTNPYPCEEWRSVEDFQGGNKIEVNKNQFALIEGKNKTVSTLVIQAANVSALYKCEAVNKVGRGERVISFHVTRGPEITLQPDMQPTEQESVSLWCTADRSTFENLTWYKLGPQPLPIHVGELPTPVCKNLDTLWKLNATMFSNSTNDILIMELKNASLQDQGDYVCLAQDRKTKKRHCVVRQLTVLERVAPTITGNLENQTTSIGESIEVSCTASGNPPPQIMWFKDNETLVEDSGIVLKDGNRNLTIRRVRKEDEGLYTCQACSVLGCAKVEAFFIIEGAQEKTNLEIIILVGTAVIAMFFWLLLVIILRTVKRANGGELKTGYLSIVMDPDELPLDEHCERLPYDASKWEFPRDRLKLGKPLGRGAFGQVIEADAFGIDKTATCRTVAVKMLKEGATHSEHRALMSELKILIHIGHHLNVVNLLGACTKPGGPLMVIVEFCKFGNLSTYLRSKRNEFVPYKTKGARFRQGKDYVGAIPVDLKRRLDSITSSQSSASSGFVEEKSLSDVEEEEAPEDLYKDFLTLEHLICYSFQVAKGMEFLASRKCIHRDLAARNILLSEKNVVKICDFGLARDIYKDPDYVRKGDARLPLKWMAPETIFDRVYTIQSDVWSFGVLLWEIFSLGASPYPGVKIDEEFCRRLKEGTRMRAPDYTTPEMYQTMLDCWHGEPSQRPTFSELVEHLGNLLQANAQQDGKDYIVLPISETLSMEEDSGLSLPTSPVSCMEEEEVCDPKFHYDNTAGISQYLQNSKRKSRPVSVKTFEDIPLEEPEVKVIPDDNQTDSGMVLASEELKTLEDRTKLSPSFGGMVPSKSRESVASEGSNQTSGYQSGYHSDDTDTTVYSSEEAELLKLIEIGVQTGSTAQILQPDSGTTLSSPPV
TGF-beta receptor type-2, sequence (P37173 whole entry): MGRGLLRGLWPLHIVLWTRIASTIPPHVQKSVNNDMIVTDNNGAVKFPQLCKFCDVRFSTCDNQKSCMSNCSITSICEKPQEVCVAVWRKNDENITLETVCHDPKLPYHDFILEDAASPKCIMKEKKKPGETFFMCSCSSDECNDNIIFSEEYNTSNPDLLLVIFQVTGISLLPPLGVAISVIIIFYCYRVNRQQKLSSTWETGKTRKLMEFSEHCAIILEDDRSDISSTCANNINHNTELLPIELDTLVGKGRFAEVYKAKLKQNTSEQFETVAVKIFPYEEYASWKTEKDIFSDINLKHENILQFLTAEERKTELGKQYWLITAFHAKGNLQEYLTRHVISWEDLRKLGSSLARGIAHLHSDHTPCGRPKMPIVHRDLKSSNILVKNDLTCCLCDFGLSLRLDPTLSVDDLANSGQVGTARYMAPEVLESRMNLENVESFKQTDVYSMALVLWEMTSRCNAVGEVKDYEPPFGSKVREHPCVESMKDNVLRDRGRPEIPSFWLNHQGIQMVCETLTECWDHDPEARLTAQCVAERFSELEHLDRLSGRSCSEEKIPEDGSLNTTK
T1 sequence (P49841 whole entry): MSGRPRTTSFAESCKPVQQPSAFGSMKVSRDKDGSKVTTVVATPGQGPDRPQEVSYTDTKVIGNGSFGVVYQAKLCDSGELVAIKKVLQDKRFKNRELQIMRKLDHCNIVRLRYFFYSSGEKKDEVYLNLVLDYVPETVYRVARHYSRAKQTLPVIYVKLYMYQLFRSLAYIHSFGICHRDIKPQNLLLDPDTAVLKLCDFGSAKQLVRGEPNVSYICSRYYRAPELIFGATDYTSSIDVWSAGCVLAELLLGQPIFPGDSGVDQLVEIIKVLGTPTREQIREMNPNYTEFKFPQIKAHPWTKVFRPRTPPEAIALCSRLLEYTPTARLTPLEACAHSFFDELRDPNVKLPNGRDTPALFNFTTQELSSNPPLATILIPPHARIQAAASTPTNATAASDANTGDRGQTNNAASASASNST
Cyclin-dependent kinase 4, sequence (P11802 whole entry): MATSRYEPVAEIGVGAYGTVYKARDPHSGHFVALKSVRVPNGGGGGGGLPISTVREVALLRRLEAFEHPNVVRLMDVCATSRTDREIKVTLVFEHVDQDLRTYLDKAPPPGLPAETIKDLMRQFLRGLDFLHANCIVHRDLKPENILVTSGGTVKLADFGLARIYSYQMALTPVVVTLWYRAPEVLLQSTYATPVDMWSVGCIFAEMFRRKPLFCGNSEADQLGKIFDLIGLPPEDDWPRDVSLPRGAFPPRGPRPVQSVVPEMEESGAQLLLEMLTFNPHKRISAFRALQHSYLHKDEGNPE
Mitogen-activated protein kinase kinase kinase 20, sequence (Q9NYL2 whole entry): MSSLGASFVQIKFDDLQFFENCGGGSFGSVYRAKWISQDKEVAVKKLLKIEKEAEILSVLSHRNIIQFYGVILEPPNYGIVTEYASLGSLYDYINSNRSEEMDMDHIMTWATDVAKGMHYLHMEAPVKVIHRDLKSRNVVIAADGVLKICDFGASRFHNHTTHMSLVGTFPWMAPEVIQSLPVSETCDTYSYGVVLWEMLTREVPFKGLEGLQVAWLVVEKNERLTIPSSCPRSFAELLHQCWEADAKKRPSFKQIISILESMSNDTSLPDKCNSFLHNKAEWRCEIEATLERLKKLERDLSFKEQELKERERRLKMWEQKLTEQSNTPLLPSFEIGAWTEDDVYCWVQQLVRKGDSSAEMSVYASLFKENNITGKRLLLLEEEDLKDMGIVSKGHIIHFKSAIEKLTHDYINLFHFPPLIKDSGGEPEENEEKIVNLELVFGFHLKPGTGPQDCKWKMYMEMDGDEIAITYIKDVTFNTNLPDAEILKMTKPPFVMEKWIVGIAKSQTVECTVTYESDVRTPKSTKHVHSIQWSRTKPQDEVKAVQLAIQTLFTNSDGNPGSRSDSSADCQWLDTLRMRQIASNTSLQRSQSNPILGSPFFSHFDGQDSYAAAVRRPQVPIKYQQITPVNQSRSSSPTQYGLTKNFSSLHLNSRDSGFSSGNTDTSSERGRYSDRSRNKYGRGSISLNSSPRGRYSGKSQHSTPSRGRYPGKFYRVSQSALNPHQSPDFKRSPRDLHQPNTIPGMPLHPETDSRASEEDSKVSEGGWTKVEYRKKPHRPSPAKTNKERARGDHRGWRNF

As to `O=C1NC(=O)C(c2cnc3ccccn23)=C1c1cn2c3c(cc(F)cc13)CN(C(=O)N1CCCCC1)CC2` [LY-2090314], in data set [1], the Vd came to 1 L. The compound also displayed a Response with Rattus norvegicus [2] of 124%. The IC50 against TGF-beta receptor type-2 is 1.2 µM; in data set [3] it was 0.42 µM; in data set [5], more than 20 µM; in data set [8], 1.8 µM; in data set [9], 0.0011 µM; in data set [10], more than 20 µM. In data set [15], this compound showed an IC50 of 0.0007 µM. The same compound had a clearance in data set [4] of 12 mL/min/kg. Also, in the data set filed under Rattus norvegicus [6], the TMED was found to be 1.5 mg/kg. In addition, the bioavailability in [7] is 23%. For the same compound, the Activity in the data set with Rattus norvegicus [11] came out at 61%. Moreover, the half-life in data set [12] is 2.8 h; in [13], 1.1 h. In addition, the area under the curve (AUC) in data set [14] is 3550 ng·h/mL.

The compound `O=C1NC(=O)C(c2cnc3ccccn23)=C1c1cn2c3c(cccc13)CN(C(=O)N1CCOCC1)CC2` gave a Response in the data set on Rattus norvegicus [2] of 119%. The IC50 at TGF-beta receptor type-2 was 2 µM; in [3], 1.1 µM; in [5] it was more than 20 µM; in [8], 1.7 µM; in data set [9], 0.0013 µM; in [10], more than 20 µM. Besides, in data set [15], the half-inhibitory concentration (IC50) was 0.0026 µM. In the data set filed under Rattus norvegicus [6], the TMED was 1.44 mg/kg. Also, the Activity in the data set with Rattus norvegicus [11] was determined as 78%.

With `O=C1NC(=O)C(c2cnc3ccccn23)=C1c1cn2c3c(cccc13)CN(C(=O)N1CCCCC1)CC2`, in the data set with Rattus norvegicus [2], the Response was 124%. Further, the half-maximal inhibitory concentration (IC50) was 3.1 µM on TGF-beta receptor type-2; 0.56 µM in data set [3]; more than 20 µM in data set [16]; 4.8 µM in data set [8]; 0.002 µM in data set [9]; more than 20 µM in data set [10]. Further, the IC50 on MAP kinase p38 is more than 20 µM; in [15] it was 0.0016 µM; in data set [17], 5.4 µM. In the data set filed under Rattus norvegicus [6], this compound had a TMED of 2.22 mg/kg. The Activity with Rattus norvegicus [11] is 69%.

Compound `CN(C)C(=O)N1CCn2cc(C3=C(c4cnc5ccccn45)C(=O)NC3=O)c3cccc(c32)C1` gave a Response in the data set with Rattus norvegicus [2] of 104%. The IC50 was more than 20 µM on TGF-beta receptor type-2; 1 µM in data set [3]; more than 20 µM in data set [5]; more than 20 µM in data set [16]; 1.5 µM in data set [8]; 0.0016 µM in data set [9]. For the same compound, the IC50 in [18] is more than 20 µM; in data set [10], more than 20 µM; against MAP kinase p38 it was more than 20 µM; in [15], 0.012 µM; in data set [17] it was 2.1 µM. The compound also returned an Activity in the data set on Rattus norvegicus [11] of 53%.

As to `CC(C)OC(=O)N1CCn2cc(C3=C(c4cnc5ccccn45)C(=O)NC3=O)c3cccc(c32)C1`, the Response in the data set with Rattus norvegicus [2] was found to be 105%. In addition, the half-maximal inhibitory concentration (IC50) against TGF-beta receptor type-2 is more than 20 µM; in data set [3], 0.8 µM; in data set [5], more than 20 µM; in [16], more than 20 µM; in [8] it was 3.3 µM; in [9] it was 0.0013 µM. Further, the half-maximal inhibitory concentration (IC50) in [18] was more than 20 µM; in data set [10], more than 20 µM; in [15], 0.015 µM; in [17], 3.4 µM. Further, the TMED in the data set listed under Rattus norvegicus [6] stood at 4.27 mg/kg. The Activity in the data set on Rattus norvegicus [11] was 58%.

The record behind these values is ChEMBL document CHEMBL1138659 (J Med Chem, 2004).
